Reference: paper PMC5766581, “NF-κB inducing kinase is a therapeutic target for systemic lupus erythematosus” (Nature Communications, 2018)

Key:
mouse NIK = target: T1, mouse NIK (Mus musculus, UniProt Q9WUL6); experiment: NIK Transcreener ADP enzymatic assay; format: biochemical; settings: mouse NIK enzymatic activity; mean ± SD
T1 construct: mouse NIK kinase domain (a.a. 329–675) (1 nM); made in house; host or cells: baculovirus-infected insect cells

Balb/c mice = experiment: TNP-OVA immunization model; format: in vivo, mouse; settings: 300 mg/kg P.O. BID, 10 days
Description: Four to nine 8-week-old female Balb/c mice were randomized into experimental groups upon delivery from vendor. […] Investigators were not blinded to experimental samples.

[1] = test system: rhCD40L induced ICOSL expression on human B cells; experiment: ICOSL expression on human B cell assay; format: cell-based; settings: ICOSL MFI by FACS, mean ± SD, read-out: CD40-induced ICOSL IC50
Protocol: Human B cells were isolated from whole blood. B cells were enriched by RosetteSep protocol (Stem Cell Technologies), and then isolated using Human B cell isolation kit II (Miltenyi). […] Mean fluorescent intensity (MFI) of CD40L and BAFF induced ICOSL expression was measured by flow cytometry on cells stained with anti-CD20 and anti-ICOSL, using a FACS Calibur instrument (BD). Plots and IC50 measurements were generated using GraphPad Prism Software.

human B cells [2] = experiment: BAFF B cell survival assay (Cell Titer Glo); format: cell-based; settings: BAFF induced; mean ± SD
Protocol: Human B cells were isolated using Miltenyi Human B cell isolation kit following ficoll separation of buffy coats. […] Mouse B cells were isolated from mouse spleen using Miltenyi mouse B cell isolation kit II. Cells were plated in Co-star 96-well plates at either 50,000 cells/well for the survival assays or at 150,000 cells/well for the proliferation assays. Compounds diluted in DMSO (final DMSO assay concentration = 0.1%) were added to the cells. The cells were incubated with compound for one hour at 37 °C. Stimulus was then added to the plates and survival or proliferation was measured after four days. For the proliferation assays, cells were treated with either Anti-IgM (20 μg/mL) or rhCD40L (10 μg/mL; R&D) or anti-mouse CD40 (100 ng/mL). Proliferation was measured using thymidine incorporation on day four. For the BAFF survival assay, cells were treated with human or mouse rBAFF (R&D Systems) at 10 ng/ml followed by Cell Titer Glo (Promega) to measure survival on day four.

mouse B cells = experiment: BAFF B cell survival assay (Cell Titer Glo); format: cell-based; settings: BAFF induced; mean ± SD
[3] = test system: IL-12p40 production from human monocyte derived DC; experiment: CD40L induced IL-12p40 production from human DCs; format: cell-based; settings: human monocyte derived DC, rhCD40L; mean ± SD; read-out: CD40-induced IL-12 p40 IC50
Protocol: Human monocytes were enriched from whole blood (Monocyte enrichment RosetteSep, Stem Cell) followed by isolation using Monocyte Isolation Kit II (Miltenyi). Isolated monocytes were cultured (RPMI-10% FBS, penicillin/streptomycin, glutamine) with rhGM-CSF (100 ng/mL) and rhIL-4 (6.5 ng/mL) (R&D Systems) for 5 days with GM-CSF replacement on day 3. On Day 5 immature monocyte derived DCs were monitored for differentiation by flow cytometry ([…], CD83^low CD86^low CD209^+/hi). […] After 24 h plates were centrifuged and supernatants were removed for IL-12p40 cytokine measurement by ELISA (BD Biosciences). Plots and IC50 measurements were generated using GraphPad Prism software.

[4] = test system: nuclear p52 (non-canonical NF-κB signaling); experiment: High content nuclear p52 imaging, anti-LTβR-stimulated HeLa cells; format: cell-based, human; settings: anti-LTβR induced, mean ± SD
Protocol: (§1) The HeLa cell line was used to define the cellular selectivity of NIK inhibitors toward inhibition of classical vs. non-classical NF-κB signaling using high content cellular imaging assays. For the nuclear translocation assay p52 (non-canonical NF-κB signaling), HeLa cells were treated with different concentrations of compounds previously diluted in DMSO (final [DMSO] = 0.2% in all wells) in DMEM medium (10% FBS, 2 mM Glutamine) and then stimulated with 300 ng/mL of an anti-lymphotoxin beta receptor antibody for 4.5 h. In the REL-A nuclear translocation assay, HeLa cells were incubated with compounds for 4 h 50 min before stimulating them with 2 ng/mL TNF (R&D Systems) for 10 min. Cells were fixed with 4% paraformaldehyde, permeabilized by adding 0.1% Triton X-100 in phosphate buffered saline, and then are incubated with either 2 μg/mL anti-p52 antibody or 400 ng/mL anti-REL-A (p65) antibody. Finally, the cells are incubated with an Alexa488-labeled secondary antibody (Invitrogen) and DRAQ5 DNA stain (Biostatus). Imaging was carried out using an Opera reader (Perkin Elmer) and data were analyzed with Acapella software (Perkin Elmer). The p52 or REL-A translocation into the nucleus is quantified by the ratio of the nuclear to cytoplasmic signal intensity.

[5] = test system: nuclear RelA (canonical NF-κB signaling); experiment: High content nuclear RelA imaging, TNF-stimulated HeLa cells; format: cell-based, human; settings: TNF induced
Protocol: as §1

human B cells [6] = experiment: Human B cell rhCD40L proliferation assay; format: cell-based; settings: thymidine incorporation, day four; read-out: Human B cell anti-CD40 proliferation IC50
human B cells [7] = experiment: Human B cell anti-IgM proliferation assay; format: cell-based; settings: thymidine incorporation, day four

T1 sequence (Q9WUL6 329-675): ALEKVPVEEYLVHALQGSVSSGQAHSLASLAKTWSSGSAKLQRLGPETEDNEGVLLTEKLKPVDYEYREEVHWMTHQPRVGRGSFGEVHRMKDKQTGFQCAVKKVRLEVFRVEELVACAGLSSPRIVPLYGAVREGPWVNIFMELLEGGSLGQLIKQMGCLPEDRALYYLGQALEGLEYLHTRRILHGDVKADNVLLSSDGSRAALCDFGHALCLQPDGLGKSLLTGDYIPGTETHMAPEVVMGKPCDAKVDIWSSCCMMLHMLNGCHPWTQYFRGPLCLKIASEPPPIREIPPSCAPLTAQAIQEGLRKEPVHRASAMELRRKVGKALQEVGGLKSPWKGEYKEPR

`CN1CC[C@@](O)(C#Cc2cccc(-n3nc(C(N)=O)c4ccccc43)c2)C1=O` [NIK SMI2] was tested, and the Ki (mouse NIK) was 0.00084 µM, the “germinal center B cell development and antigen-specific IgG1 production” value (Balb/c mice) was “reduced” and the IC50 [1] was 0.0587 µM. For the same compound, the IC50 (human B cells [2]) was 0.36 µM, the IC50 (mouse B cells) was 1.75 µM and the IC50 [3] was 0.0607 µM. For the same compound, the IC50 [4] was 0.043 µM, the IC50 [5] was > 2 µM and the IC50 (human B cells [6]) was > 10 µM. The IC50 (human B cells [7]) was > 10 µM.
